According to paper doi:10.1101/2025.09.05.673737v1 (biorxiv, 2025):
pEC50: −log10 of the molar value.

Molecular target: T1, ArpA (Streptomyces griseus, UniProt Q9ZN78)
T1 sequence (Q9ZN78 1-276): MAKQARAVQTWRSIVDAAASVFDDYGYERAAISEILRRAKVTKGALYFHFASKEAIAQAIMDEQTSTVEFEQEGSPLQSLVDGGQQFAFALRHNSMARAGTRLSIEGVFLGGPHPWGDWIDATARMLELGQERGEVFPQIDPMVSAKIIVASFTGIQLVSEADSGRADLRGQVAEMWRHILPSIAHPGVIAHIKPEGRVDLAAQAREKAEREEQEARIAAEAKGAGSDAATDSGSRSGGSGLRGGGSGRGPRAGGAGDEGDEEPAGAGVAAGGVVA
Test: E. coli pTOTAL biosensor, GFP derepression dose-response
Type: cell-based

CC(C)CCCCC(=O)C1C(=O)OC[C@H]1CO (some centres unmarked) [A-factor]
pEC50: 6.41

CC(C)CCCC[C@@H](O)[C@@H]1C(=O)OC[C@H]1CO [SCB1]
pEC50: 4.74
